Source: ChEMBL document CHEMBL4038300, “Return of D4 Dopamine Receptor Antagonists in Drug Discovery” (J Med Chem, 2017)

Assays:
Histamine H1 receptor = Histamine H1 receptor (Homo sapiens, UniProt P35367); experiment: Inhibition of histamine H1 receptor (unknown origin); details: concentration not given here
Homo sapiens = organism: Homo sapiens; experiment: Inhibition of beta-adrenergic receptor (unknown origin); details: concentration not given here
[1] = target: 5-hydroxytryptamine receptor 2A (Homo sapiens, UniProt P28223); experiment: Inhibition of serotonin 5-HT2 receptor (unknown origin); details: concentration not given here
5-hydroxytryptamine receptor 2A, sequence (P28223 whole entry): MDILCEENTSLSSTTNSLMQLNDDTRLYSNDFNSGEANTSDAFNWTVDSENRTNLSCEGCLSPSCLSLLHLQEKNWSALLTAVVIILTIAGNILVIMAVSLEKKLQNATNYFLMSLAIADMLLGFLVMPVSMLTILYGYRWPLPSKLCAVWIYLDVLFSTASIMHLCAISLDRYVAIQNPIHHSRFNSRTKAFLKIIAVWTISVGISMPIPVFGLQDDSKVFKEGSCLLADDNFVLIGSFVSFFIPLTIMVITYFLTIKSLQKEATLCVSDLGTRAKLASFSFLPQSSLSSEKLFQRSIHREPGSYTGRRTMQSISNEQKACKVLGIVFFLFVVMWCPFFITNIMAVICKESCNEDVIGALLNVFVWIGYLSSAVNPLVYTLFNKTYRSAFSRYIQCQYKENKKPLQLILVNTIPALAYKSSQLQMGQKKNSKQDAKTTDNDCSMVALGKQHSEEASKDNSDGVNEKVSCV

[2] = target: 5-hydroxytryptamine receptor 2C (Homo sapiens) (UniProt P28335); experiment: Inhibition of serotonin 5-HT2C receptor (unknown origin); details: concentration not given here
5-hydroxytryptamine receptor 2C (Homo sapiens), sequence (P28335 whole entry): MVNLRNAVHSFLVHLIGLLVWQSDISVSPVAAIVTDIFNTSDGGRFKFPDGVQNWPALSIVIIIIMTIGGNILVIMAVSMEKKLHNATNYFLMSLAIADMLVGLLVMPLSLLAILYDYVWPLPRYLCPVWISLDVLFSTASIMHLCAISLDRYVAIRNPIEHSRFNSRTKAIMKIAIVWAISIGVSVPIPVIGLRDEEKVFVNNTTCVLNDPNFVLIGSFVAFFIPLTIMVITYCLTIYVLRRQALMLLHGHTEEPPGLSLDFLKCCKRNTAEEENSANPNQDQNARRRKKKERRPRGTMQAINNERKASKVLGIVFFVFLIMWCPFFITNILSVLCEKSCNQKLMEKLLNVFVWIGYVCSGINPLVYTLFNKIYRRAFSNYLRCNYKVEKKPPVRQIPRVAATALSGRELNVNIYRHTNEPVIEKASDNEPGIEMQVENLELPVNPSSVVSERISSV

[3] = target: Adrenergic receptor alpha-2 (Homo sapiens) (UniProt P08913+P18825+P18089); experiment: Inhibition of alpha2 adrenergic receptor (unknown origin); details: concentration not given here
D(1A) dopamine receptor = D(1A) dopamine receptor (Homo sapiens, UniProt P21728); experiment: Inhibition of dopamine D1 receptor (unknown origin) at 10 uM
D(1A) dopamine receptor, sequence (P21728 whole entry): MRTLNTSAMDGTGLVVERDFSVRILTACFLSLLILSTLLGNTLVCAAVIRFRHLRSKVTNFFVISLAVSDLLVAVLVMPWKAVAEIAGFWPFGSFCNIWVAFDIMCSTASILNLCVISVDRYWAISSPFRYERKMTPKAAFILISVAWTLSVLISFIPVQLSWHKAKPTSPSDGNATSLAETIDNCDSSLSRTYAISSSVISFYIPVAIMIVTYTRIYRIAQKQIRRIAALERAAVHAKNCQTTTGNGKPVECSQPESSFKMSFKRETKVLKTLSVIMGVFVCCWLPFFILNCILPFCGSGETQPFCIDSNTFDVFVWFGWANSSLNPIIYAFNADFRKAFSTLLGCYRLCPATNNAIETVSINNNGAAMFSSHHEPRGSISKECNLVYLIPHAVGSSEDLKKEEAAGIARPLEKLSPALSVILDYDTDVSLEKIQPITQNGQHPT

[4] = target: Neuropeptide Y receptor type 1 (Homo sapiens) (UniProt P25929); experiment: Inhibition of NPY1 receptor (unknown origin); details: concentration not given here
Neuropeptide Y receptor type 1 (Homo sapiens), sequence (P25929 whole entry): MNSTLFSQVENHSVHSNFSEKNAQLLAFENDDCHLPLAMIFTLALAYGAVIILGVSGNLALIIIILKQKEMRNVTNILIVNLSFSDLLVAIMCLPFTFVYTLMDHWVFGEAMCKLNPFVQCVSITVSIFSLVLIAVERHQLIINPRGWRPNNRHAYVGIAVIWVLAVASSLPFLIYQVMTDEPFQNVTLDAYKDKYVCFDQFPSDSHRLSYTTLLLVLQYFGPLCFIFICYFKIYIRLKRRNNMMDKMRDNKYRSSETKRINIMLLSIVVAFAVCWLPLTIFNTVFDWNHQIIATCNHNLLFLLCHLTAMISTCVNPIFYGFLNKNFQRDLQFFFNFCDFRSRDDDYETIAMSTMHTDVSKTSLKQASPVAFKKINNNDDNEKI

[5] = target: Glutamate [NMDA] receptor (Homo sapiens) (UniProt Q05586+Q12879+Q13224+O15399+O60391+Q14957+Q8TCU5); experiment: Inhibition of NMDA receptor (unknown origin); details: concentration not given here
[6] = target: Adrenergic receptor alpha-1 (Homo sapiens) (UniProt P35348+P25100+P35368); experiment: Inhibition of alpha1 adrenergic receptor (unknown origin); details: concentration not given here
[7] = Inhibition of human dopamine D4.2 receptor
D(1B) dopamine receptor = D(1B) dopamine receptor (Homo sapiens, UniProt P21918); experiment: Inhibition of dopamine D5 receptor (unknown origin) at 10 uM
D(1B) dopamine receptor, sequence (P21918 whole entry): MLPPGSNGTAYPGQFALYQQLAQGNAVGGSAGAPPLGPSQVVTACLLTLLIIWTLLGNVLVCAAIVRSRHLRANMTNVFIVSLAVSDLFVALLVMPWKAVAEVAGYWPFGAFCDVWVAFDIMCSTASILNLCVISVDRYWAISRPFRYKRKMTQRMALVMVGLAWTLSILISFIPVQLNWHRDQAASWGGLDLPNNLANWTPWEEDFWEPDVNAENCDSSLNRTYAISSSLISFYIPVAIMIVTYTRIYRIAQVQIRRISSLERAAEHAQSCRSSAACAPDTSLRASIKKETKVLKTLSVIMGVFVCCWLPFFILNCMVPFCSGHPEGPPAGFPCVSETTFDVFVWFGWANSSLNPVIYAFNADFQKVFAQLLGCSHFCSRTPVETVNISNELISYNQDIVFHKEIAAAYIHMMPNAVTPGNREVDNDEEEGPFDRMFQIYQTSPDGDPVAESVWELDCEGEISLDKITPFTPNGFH

[8] = Inhibition of human dopamine D4.7 receptor
D(3) dopamine receptor [9] = target: T1, D(3) dopamine receptor (Homo sapiens, UniProt P35462); experiment: Inhibition of dopamine D3 receptor (unknown origin) at 10 uM
T1 sequence (P35462 whole entry): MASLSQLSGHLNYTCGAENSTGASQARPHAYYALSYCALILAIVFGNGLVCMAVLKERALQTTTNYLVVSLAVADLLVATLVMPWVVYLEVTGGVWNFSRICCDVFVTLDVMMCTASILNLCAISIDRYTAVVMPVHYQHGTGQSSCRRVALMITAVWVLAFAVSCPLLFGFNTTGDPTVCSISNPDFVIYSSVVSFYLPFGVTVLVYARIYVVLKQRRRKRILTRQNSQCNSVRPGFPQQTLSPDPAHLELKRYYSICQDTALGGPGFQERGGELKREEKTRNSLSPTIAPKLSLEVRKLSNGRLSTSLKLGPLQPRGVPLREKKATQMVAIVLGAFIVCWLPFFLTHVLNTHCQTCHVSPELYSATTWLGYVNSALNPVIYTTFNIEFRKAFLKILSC

[10] = target: Histamine H3 receptor (Homo sapiens) (UniProt Q9Y5N1); experiment: Inhibition of histamine H3 receptor (unknown origin); details: concentration not given here
Histamine H3 receptor (Homo sapiens), sequence (Q9Y5N1 whole entry): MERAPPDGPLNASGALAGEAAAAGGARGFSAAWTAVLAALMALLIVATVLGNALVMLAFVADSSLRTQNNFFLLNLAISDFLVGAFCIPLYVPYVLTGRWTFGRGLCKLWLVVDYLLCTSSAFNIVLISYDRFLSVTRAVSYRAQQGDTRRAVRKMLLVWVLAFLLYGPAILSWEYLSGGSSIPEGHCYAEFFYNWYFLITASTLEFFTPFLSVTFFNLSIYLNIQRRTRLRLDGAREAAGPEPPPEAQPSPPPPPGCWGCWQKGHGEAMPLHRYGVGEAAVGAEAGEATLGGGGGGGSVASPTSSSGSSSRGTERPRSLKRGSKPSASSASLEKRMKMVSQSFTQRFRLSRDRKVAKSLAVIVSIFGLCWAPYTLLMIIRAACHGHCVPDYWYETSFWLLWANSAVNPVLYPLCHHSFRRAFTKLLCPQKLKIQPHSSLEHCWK

[11] = target: Neuropeptide Y receptor type 2 (Homo sapiens) (UniProt P49146); experiment: Inhibition of NPY2 receptor (unknown origin); details: concentration not given here
Neuropeptide Y receptor type 2 (Homo sapiens), sequence (P49146 whole entry): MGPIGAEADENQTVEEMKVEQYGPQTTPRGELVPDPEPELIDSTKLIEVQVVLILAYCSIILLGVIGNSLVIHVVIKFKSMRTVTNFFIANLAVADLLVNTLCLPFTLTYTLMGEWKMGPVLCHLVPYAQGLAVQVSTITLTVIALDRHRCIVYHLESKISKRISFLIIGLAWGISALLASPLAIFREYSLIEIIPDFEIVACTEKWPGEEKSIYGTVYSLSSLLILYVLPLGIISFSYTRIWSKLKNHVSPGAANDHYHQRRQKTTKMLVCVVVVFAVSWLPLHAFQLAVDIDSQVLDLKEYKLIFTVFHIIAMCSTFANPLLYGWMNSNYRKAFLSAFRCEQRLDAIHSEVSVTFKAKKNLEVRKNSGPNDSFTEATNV

[12] = Inhibition of human dopamine D4.4 receptor
D(3) dopamine receptor [13] = target: T1, D(3) dopamine receptor; experiment: Inhibition of human dopamine D3 receptor
[14] = Oral bioavailability in rat at 20 mg/kg; type: ADME, organism-based; details: in vivo
D(2) dopamine receptor = D(2) dopamine receptor (Homo sapiens, UniProt P14416); experiment: Inhibition of human dopamine D2 receptor
D(2) dopamine receptor, sequence (P14416 whole entry): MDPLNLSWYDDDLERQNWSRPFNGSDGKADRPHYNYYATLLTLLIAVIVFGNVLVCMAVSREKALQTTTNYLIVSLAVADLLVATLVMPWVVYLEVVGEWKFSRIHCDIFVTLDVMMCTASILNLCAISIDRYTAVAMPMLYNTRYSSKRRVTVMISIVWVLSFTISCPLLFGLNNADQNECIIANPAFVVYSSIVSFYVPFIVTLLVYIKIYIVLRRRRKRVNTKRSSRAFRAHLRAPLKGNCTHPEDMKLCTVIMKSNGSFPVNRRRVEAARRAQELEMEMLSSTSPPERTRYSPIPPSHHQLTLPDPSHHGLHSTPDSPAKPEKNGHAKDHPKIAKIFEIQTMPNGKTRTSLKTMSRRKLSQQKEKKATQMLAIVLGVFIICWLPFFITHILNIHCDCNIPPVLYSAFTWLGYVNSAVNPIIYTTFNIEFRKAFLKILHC

D(4) dopamine receptor = target: T2, D(4) dopamine receptor (Homo sapiens, UniProt P21917); experiment: Inhibition of human dopamine D4 receptor
T2 sequence (P21917 whole entry): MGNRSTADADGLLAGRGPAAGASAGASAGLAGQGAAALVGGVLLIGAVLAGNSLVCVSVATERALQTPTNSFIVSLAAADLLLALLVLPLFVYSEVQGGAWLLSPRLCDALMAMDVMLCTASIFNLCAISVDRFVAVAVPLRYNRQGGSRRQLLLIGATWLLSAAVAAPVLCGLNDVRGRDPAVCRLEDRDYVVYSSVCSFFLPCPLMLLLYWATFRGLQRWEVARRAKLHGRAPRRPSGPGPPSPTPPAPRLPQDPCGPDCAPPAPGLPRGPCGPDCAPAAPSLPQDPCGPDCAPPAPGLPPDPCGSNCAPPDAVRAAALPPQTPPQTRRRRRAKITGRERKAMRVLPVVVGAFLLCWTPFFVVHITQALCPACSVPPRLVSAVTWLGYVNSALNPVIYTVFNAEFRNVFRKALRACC

Histamine H1 receptor, sequence (P35367 whole entry): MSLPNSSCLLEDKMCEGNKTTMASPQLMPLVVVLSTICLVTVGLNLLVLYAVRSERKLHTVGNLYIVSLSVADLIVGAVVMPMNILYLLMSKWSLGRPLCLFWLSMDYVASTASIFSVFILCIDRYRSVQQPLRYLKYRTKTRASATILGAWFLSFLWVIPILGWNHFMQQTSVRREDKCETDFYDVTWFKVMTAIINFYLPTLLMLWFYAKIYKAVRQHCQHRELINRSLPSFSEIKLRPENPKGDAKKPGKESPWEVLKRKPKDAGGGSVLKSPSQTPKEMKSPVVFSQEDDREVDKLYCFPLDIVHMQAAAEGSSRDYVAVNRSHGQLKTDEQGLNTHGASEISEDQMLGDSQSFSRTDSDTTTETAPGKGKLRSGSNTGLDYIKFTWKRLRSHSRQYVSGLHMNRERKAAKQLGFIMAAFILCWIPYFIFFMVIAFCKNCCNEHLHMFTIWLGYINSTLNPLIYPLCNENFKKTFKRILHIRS

| inhibition (Histamine H1 receptor) [%] | inhibition (Homo sapiens) [%] | inhibition [1] [%] | inhibition [2] [%] | inhibition [3] [%] | inhibition (D(1A) dopamine receptor) [%] | inhibition [4] [%] | inhibition [5] [%] | inhibition [6] [%] | Ki [7] [nM] | inhibition (D(1B) dopamine receptor) [%] | Ki [8] [nM] | inhibition (D(3) dopamine receptor [9]) [%] | inhibition [10] [%] | inhibition [11] [%] | Ki [12] [nM] | Ki (D(3) dopamine receptor [13]) [nM] | bioavailability [14] [%] | Ki (D(2) dopamine receptor) [nM] | Ki (D(4) dopamine receptor) [nM] | Compound |
| --- | --- | --- | --- | --- | --- | --- | --- | --- | --- | --- | --- | --- | --- | --- | --- | --- | --- | --- | --- | --- |
| < 50 | < 50 | < 50 | < 50 | < 50 | < 50 | < 50 | < 50 | < 50 | 4.2 | < 50 | 2.1 | < 50 | < 50 | < 50 | 2.2 | – | – | – | – | c1ccc(-c2nc(CN3CCN(c4ncccn4)CC3)c[nH]2)cc1 |
| – | – | – | – | – | – | – | – | – | – | – | – | – | – | – | – | 1480 | > 40 | 400 | 5.6 | c1ccc(OCC2CN(Cc3c[nH]c4ccccc34)CCO2)cc1 (stereo not given) |
